Data reported in EP4792817A1, “COMPOUND AND METHOD FOR TREATING AND/OR […] CANCER OR PR[…] THEREOF” (EnKang Pharmaceuticals (Guangzhou), Ltd., priority 2023, dated 2025).
Converted amounts (≈) assume the structure as drawn. Where two headings read alike, the source gives them in different places.

Legend:
COLO-16 cells [1] = settings: drug substance 0.8 mg/kg; intragastric administration, once every other day; after 21 days of treatment
[2] = 20 °C
[3] = not given; remark: listed apart in the source
[4] = for plasma drug concentrations above the LLOQ: topical gel 0.008-0.06 mg/cm^2, LLOQ 0.02 ng/mL
[5] = tested on: TE.354.T cells (human cutaneous basal cell carcinoma); assay: cells; settings: 72 h, read-out: half-maximal inhibitory concentration
Method: The percent inhibition rate of each concentration group was calculated using the following formula: [Inhibition rate = (1 - T/C) × 100%], and the half-maximal inhibitory concentration (IC50) was calculated.

[6] = tested on: human liver cancer HepG2 cells; settings: Patent No. CN 104736157 A; cited from earlier work
COLO-16 cells [7] = assay: cells; settings: for IC50: test concentrations in ng/mL
Method: (§1) The experimental procedures were as follows: The cells were subcultured in a complete medium containing 10% FBS in an incubator at 37 °C with 5% CO2 and saturated humidity. The cell density was adjusted to (3-5) × 10^4 cells/mL using a complete medium containing 10% FBS. The cell suspension was added to the wells of a 96-well culture plate at 100 µL/well, and the plate was incubated in an incubator at 37 °C with 5% CO2 and saturated humidity overnight (for about 16-24 hrs). Various dose groups of the test substance and a solvent control group were set. On the next day, the original culture medium was discarded. Subsequently, 20% FBS-containing complete medium was added at 100 µL/well, and the test substance or solvent in FBS-free medium was then added at 100 µL/well, resulting in a final FBS concentration of 10%. Meanwhile, a negative control group was set: each well received 100 µL of 20% FBS-containing complete medium + 100 µL of incomplete medium containing cells, resulting in a final FBS concentration of 10%. A zero adjustment group (background) was also set: 200 µL of the culture medium alone (100 µL of 20% FBS-containing complete medium + 100 µL of incomplete medium), without drugs and cells. For each concentration group, four replicate wells were set.
After incubation for 48 hrs under the experimental conditions, the supernatant was discarded, and 110 µL of CCK-8 working solution (100 µL of 10% FBS-containing complete medium and 10 µL of CCK-8 solution) were added to each well. The cells were further incubated for 4 hrs, and the optical density value at a wavelength of 450 nm (A450) was then measured for each well using a microplate reader. The average value for the wells of each treatment group (T) was compared with the average value for the negative control wells (C). The percent inhibition rate of each concentration group was calculated using the following formula: [Inhibition rate = (1 - T/C) × 100%], and the half-maximal inhibitory concentration (IC50) was calculated.

A431 cells = settings: 48 hrs
Method: as §1, with “Meanwhile, a negative control group was set: each well received 100 µL of 20% FBS-containing complete medium + 100 µL of incomplete medium containing cells, resulting in a final FBS concentration of 10%. A zero adjustment group (background) was also set: 200 µL of the culture medium alone (100 µL of 20% FBS-containing complete medium + 100 µL of incomplete medium), without drugs and cells. For each concentration group, four replicate wells were set.” left out
(§2) After incubation for 48 hrs under the experimental conditions, the supernatant was discarded, and 110 µL of CCK-8 working solution (100 µL of 10% FBS-containing complete medium and 10 µL of CCK-8 solution) were added to each well. The cells were further incubated for 4 hrs, and the optical density value at a wavelength of 450 nm (A450) was then measured for each well using a microplate reader. […]

SCL-1 cells = settings: 48 hrs
Method: as §1, with “Meanwhile, a negative control group was set: each well received 100 µL of 20% FBS-containing complete medium + 100 µL of incomplete medium containing cells, resulting in a final FBS concentration of 10%. A zero adjustment group (background) was also set: 200 µL of the culture medium alone (100 µL of 20% FBS-containing complete medium + 100 µL of incomplete medium), without drugs and cells. For each concentration group, four replicate wells were set.” left out
as §2

For CO[C@H]1[C@H](O)[C@H](O[C@H]2CC[C@@]3(C)[C@H](CC[C@@H]4[C@@H]3CC[C@]3(C)[C@@H](C5=CC(=O)OC5)CC[C@]43O)C2)O[C@@H](C)[C@@H]1O [17β-neriifolin], the tumor inhibition rate (COLO-16 cells [1]) was “greater than 80%”, the solubility was ~70 µg/mL (≈ 131 µM) and the Dissolution behavior ([2]; Ethanol concentration 20%, sample concentration 8 mg/g) was “Dissolved”. The Dissolution behavior ([2]; Ethanol concentration 45%, sample concentration 20 mg/g) was “Dissolved”, the Dissolution behavior ([2]; Ethanol concentration 50%, sample concentration 24 mg/g) was “Dissolved” and the Dissolution behavior ([2]; Ethanol concentration 66%, sample concentration 32 mg/g) was “Dissolved”. For the same compound, the Dissolution behavior ([2]; Ethanol concentration 75%, sample concentration 40 mg/g) was “Dissolved”, the Dissolution behavior ([2]; Ethanol concentration 100%, sample concentration 50 mg/g) was “Dissolved” and the Saturation solubility ([3]; 10% ethanol) was 0.16 mg/mL. The Saturation solubility ([3]; 10% propylene glycol) was 0.08 mg/mL, the Saturation solubility ([3]; 20% ethanol) was 0.38 mg/mL and the Saturation solubility ([3]; 20% propylene glycol) was 0.10 mg/mL. It also gave a Saturation solubility ([3]; 30% ethanol) of 0.91 mg/mL, a Saturation solubility ([3]; 30% propylene glycol) of 0.42 mg/mL and a Saturation solubility ([3]; 40% ethanol) of 2.17 mg/mL. For the same compound, the Saturation solubility ([3]; 40% propylene glycol) was 0.75 mg/mL, the “plasma drug concentrations above the LLOQ” value ([4]; four Australian subjects) was 0.021 to 0.101 ng/mL and the “plasma drug concentrations above the LLOQ” value ([4]; seven Chinese subjects) was 0.022 to 0.106 ng/mL. For the same compound, the “dose dependence of systemic exposure” value ([4]; topical gel, 0.008-0.06 mg/cm^2 dose range) was “No dose-dependent increase”, the IC50 [5] was ~0.01 µg/mL (≈ 0.0187 µM) and the “cell cycle arrest and apoptosis” value [6] was “induce cell cycle arrest and apoptosis”. For the same compound, the Inhibition rate% (COLO-16 cells [7]; 2.5 ng/mL, 48 hrs) was 6.9%, the Inhibition rate% (COLO-16 cells [7]; 25 ng/mL, 48 hrs) was 72.7% and the Inhibition rate% (COLO-16 cells [7]; 50 ng/mL, 48 hrs) was 77.9%. It also gave an Inhibition rate% (COLO-16 cells [7]; 100 ng/mL, 48 hrs) of 89.5%, an IC50 (COLO-16 cells [7]; 48 hrs) of 12.28 and an inhibition at 0.0025 µg/mL (COLO-16 cells [7]; Homo sapiens, 48 h, read-out: Inhibition rate%, 2.5 ng/mL) of 9%. For the same compound, the inhibition at 0.025 µg/mL (COLO-16 cells [7]; Homo sapiens, 48 h, read-out: Inhibition rate%, 25 ng/mL) was 57.3%, the inhibition at 0.05 µg/mL (COLO-16 cells [7]; Homo sapiens, 48 h, read-out: Inhibition rate%, 50 ng/mL) was 74.5% and the inhibition at 0.1 µg/mL (COLO-16 cells [7]; Homo sapiens, 48 h, read-out: Inhibition rate%, 100 ng/mL) was 85.3%. For the same compound, the IC50 (COLO-16 cells [7]; Homo sapiens, 48 h) was 0.0186 µg/mL (≈ 0.0348 µM), the growth inhibitory effects (A431 cells) was “strong growth inhibitory effects” and the growth inhibitory effects (SCL-1 cells) was “strong growth inhibitory effects”.
